Article PMC9950073, “Alleviation of arthritis through prevention of neutrophil extracellular traps by an orally available inhibitor of protein arginine deiminase 4” (Scientific Reports, 2023)

What was measured:
[1] = Microsomal stability, DLM; format: in vitro ADME, dog; conditions: 1 µM, liver microsomes 0.5 mg/mL; one range given for HLM/MLM/DLM/RLM
Procedure: Microsomal stability: Liver microsomes (0.5 mg/mL) from different species were incubated with JBI-589 (1 µM) with or without NADPH (1 mM) at 37 °C for 30 min in potassium phosphate buffer (pH 7.4) and then reaction was stopped with quenching solution (0.5% Formic acid in internal standard (IS) containing ACN). Resulting samples were centrifuged and supernatant was taken for LC–MS/MS analysis. Percent metabolism was calculated as follows: % Metabolized: [1 − (test area ratio/control area ratio)] *100.

[2] = biological target: T1, CYP3A4 (Homo sapiens, UniProt P08684); assay: CYP inhibition in human liver microsome, CYP3A4; format: in vitro ADME
T1 construct: from tissue; host or cells: human liver microsomes
T1 sequence (P08684 whole entry): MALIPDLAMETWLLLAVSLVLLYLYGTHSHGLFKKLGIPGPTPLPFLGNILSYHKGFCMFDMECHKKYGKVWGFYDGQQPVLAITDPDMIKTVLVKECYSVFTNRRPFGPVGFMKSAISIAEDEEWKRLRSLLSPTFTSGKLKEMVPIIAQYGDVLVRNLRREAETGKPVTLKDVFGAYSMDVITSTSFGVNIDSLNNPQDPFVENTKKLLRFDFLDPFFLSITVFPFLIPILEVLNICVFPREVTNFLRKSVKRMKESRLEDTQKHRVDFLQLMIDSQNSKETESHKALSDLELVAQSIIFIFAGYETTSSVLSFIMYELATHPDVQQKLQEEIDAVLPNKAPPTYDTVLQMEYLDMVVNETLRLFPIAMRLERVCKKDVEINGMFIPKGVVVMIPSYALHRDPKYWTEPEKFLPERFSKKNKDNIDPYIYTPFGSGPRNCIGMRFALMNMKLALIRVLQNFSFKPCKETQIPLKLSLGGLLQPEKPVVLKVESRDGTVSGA
Procedure: (§1) CYP inhibition: Human liver microsome (0.1–0.5 mg/mL for various CYPs) and appropriate probe substrates (2.5–20 µM) were incubated in potassium phosphate buffer with or without JBI-589 for 5 min at 37 °C. The reaction was initiated by addition of NADPH (1 mM), incubated at 37 °C for 10 min and quenched (0.5% Formic acid in internal standard (IS) containing ACN). Samples were then centrifuged and taken for LC–MS/MS analysis. Percent change in metabolite formation for each substrate under above conditions using formula: Percent inhibition = [1 − (test area ratio/control area ratio)] *100.

[3] = biological target: T2, human recombinant PAD1 (Homo sapiens, UniProt Q9ULC6); assay: PAD1 selectivity biochemical assay measuring ammonia release; conditions: 10 semi-log concentrations, highest concentration tested 30 µM
T2 construct: purchased Cayman Chemicals 10784
T2 sequence (Q9ULC6 1-663): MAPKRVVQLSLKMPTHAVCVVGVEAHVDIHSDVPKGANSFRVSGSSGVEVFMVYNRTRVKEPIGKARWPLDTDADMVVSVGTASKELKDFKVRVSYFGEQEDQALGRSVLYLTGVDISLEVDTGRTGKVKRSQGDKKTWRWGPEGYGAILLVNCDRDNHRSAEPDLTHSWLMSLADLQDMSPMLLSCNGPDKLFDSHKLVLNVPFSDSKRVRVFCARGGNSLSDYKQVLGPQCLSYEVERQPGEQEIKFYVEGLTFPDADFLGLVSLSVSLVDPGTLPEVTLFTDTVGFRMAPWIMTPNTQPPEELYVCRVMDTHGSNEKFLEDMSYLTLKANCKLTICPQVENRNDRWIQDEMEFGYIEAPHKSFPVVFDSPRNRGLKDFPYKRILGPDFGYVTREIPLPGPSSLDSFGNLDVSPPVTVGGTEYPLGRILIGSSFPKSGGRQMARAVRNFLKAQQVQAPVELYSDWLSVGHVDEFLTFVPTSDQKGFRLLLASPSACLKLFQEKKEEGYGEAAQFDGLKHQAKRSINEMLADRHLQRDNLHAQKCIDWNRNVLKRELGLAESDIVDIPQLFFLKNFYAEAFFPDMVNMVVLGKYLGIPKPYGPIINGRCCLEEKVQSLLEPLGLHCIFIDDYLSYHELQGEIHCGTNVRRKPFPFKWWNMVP

[4] = biological target: T3, human recombinant PAD3 (Homo sapiens, UniProt Q9ULW8); assay: PAD3 selectivity biochemical assay measuring ammonia release; conditions: 10 semi-log concentrations, highest concentration tested 30 µM
T3 construct: purchased Cayman Chemicals 10786
T3 sequence (Q9ULW8 1-664): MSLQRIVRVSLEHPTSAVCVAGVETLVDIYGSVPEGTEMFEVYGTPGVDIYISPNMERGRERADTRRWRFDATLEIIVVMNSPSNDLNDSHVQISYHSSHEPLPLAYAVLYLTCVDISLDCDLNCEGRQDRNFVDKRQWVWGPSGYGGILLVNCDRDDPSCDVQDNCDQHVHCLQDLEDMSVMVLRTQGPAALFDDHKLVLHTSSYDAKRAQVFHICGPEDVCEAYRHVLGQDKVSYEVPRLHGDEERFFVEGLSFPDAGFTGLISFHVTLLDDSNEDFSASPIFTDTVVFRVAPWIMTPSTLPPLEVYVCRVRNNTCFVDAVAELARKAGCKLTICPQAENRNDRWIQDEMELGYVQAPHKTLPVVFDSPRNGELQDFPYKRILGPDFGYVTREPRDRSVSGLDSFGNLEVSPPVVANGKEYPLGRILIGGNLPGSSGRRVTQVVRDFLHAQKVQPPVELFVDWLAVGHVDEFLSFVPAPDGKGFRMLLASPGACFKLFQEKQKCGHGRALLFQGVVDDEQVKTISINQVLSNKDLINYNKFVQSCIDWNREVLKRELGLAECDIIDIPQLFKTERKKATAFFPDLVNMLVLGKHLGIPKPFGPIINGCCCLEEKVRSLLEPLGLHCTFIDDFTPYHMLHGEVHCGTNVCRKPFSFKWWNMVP

[5] = biological target: T4, CYP2C19 (Homo sapiens, UniProt P33261); assay: CYP inhibition in human liver microsome, CYP2C19; format: in vitro ADME
T4 construct: from tissue; host or cells: human liver microsomes
T4 sequence (P33261 whole entry): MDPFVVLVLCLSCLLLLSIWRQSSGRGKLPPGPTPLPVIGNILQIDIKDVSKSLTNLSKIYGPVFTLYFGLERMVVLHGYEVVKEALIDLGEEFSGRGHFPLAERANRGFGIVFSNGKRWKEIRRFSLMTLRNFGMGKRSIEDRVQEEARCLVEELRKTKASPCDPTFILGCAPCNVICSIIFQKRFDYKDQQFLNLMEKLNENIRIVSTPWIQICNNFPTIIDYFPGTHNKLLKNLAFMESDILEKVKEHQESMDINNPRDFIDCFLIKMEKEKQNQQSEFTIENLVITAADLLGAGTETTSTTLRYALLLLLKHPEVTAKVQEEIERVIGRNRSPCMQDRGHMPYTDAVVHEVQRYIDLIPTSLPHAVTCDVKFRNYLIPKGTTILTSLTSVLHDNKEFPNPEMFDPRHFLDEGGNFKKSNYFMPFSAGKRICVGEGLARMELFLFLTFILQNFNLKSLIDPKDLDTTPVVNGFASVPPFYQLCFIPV
Procedure: as §1

[6] = predicted from % inhibition, text says major CYPs tested

DLM % metabolized @ 30 min [1]: 25-50% | inhibition at 10 min, 10 µM ([2]; human liver microsomes, 10 µM, human liver microsome, read-out: CYP3A4 inhibition (% inh @10 µM)): < 50% | IC50 [2, 6]: > 10 µM | inhibitory activity against PAD1 [3]: did not have any inhibitory activity | inhibitory activity against PAD3 [4]: did not have any inhibitory activity | inhibition at 10 min, 10 µM ([5]; human liver microsomes, 10 µM, human liver microsome, read-out: CYP2C19 inhibition (% inh @10 µM)): < 50% | IC50 [5, 6]: > 10 µM
Structure (SMILES): Cc1c(-c2cc3ccccc3n2Cc2ccc(F)cc2)nc2cc(C(=O)N3CCC[C@@H](N)C3)ccn12 [JBI-589, (R)-(3-aminopiperidin-1-yl)(2-(1-(4-fluorobenzyl)-1H-indol-2-yl)-3-methylimidazo[1,2-a]pyridin-7-yl)methanone]
